From patent US20180318311A1, “TRICYCLIC 2-QUINOLINONES AS ANTIBACTERIALS” (priority 2017, published 2018)
In brackets after ≈: the same amount, converted by molar mass. Where two headings read alike, the source gives them in different places.

How the values were obtained:
Format in all cases: cell-based
[1] = tested on: S. aureus ATCC 49951 (NB01006); experiment: MIC by broth microdilution, S. aureus NB01006; settings: Staphylococcus aureus, ATCC49951, CAMHB, 35° C., 20 hours, read-out: Antibacterial activity (MIC) NB01006
Experimental: (§1) Bacterial isolates were cultivated from −80° C. frozen stocks by overnight passages at 35° C. in ambient air on Mueller-Hinton agar plates (MHA, Becton Dickinson, Franklin Lakes, NB) with the exception of S. pneumoniae which was grown overnight at 35° C. in the presence of 5% CO2 on blood agar plates (tryptic soy agar with 5% sheep blood (Thermo Scientific, Waltham, Mass.) . The following quality control and wild type strains were obtained from the American Type Culture Collection (ATCC; Rockville, Md.) and are coded in the Novartis strain collection as indicated: E. coli ATCC 25922 (NB27001), E. faecalis ATCC 29212 (NB04001), S. aureus ATCC 49951 (NB01006) and S. pneumoniae ATCC […] (NB07001). […] P. aeruginosa NB52019, obtained from Queen's University (Kingston, Ontario, Canada), is the wild-type PAO1 strain.
(§2) Minimal Inhibitory Concentrations (MIC) were determined by the broth microdilution method in accordance with Clinical and Laboratories Institute (CLSI) guidelines. In brief, fresh bacterial overnight cultures were re-suspended in sterile saline, adjusted to a 0.5 McFarland turbidity standard and then diluted to yield a final inoculum of approximately 5×10^5 colony-forming units (CFU)/mL. All bacterial suspensions were prepared in cation adjusted Mueller-Hinton Broth (CAMHB; Becton Dickinson, Franklin Lakes, N.J.;) with the exception of S. pneumoniae which was prepared in CAMHB supplemented with 5% lysed horse blood (Hardy Diagnostics, Santa Maria, Calif.). Two-fold serial dilutions of compounds were prepared in 100% dimethyl sulfoxide (DMSO) at 100-fold the highest final assay concentration; the resulting dilution series of compounds were diluted 1:10 with sterile water. Ten μL of the drug dilution series in 10% DMSO was transferred to microtiter wells and 90 μL of bacterial suspension was inoculated into the wells. All inoculated microdilution trays were incubated in ambient air at 35° C. for 20 hours. Following incubation, assay plates were read in a microtiter plate reader at 600 nm and visually inspected to confirm the MIC endpoint well with the OD value. The lowest concentration of the compound that prevented visible growth was recorded as the MIC (in μg/mL).

[2] = tested on: S. aureus NB01006-AVR005, gyrA (S84L), grlA (580F) and grlB (E471K); experiment: microbe, parasite or virus in culture; settings: Staphylococcus aureus, 20 h, read-out: Antibacterial activity (MIC) NB01006-AVR005
Experimental: as §1, §2

[3] = tested on: S. aureus NB01080 fluoroquinolone-resistant clinical isolate; experiment: MIC by broth microdilution, S. aureus NB01080; settings: Staphylococcus aureus, CAMHB, 35° C., 20 hours, read-out: Antibacterial activity (MIC) NB01080
Experimental: as §1, §2

[4] = tested on: E. faecalis ATCC 29212 (NB04001); experiment: MIC by broth microdilution, E. faecalis NB04001; settings: Enterococcus faecalis, ATCC29212, CAMHB, 35° C., 20 hours, read-out: Antibacterial activity (MIC) NB04001
Experimental: as §1, §2

[5] = tested on: S. pneumoniae ATCC 25922 (NB07001); experiment: MIC by broth microdilution, S. pneumoniae NB07001; settings: Streptococcus pneumoniae, read-out: Antibacterial activity (MIC) NB07001
Experimental: as §1, §2

[6] = tested on: E. coli ATCC 25922 (NB27001); experiment: MIC by broth microdilution, E. coli NB27001; settings: Escherichia coli, ATCC25922, CAMHB, 35° C., 20 hours, read-out: Antibacterial activity (MIC) NB27001
Experimental: as §1, §2

[7] = tested on: P. aeruginosa NB52019, wild-type PAO1 strain; experiment: MIC by broth microdilution, P. aeruginosa NB52019; settings: Pseudomonas aeruginosa, CAMHB, 35° C., 20 hours, read-out: Antibacterial activity (MIC) NB52019
Experimental: as §1, §2

[8] = ATCC25922, S. pneumoniae, CAMHB supplemented with 5% lysed horse blood, 35° C., 20 hours

SMILES	MIC [1] [µg/mL]	MIC [2] [µg/mL]	MIC [3] [µg/mL]	MIC [4] [µg/mL]	MIC ([5]; ATCC25922, 20 h) [µg/mL]	MIC [6] [µg/mL]	MIC [7] [µg/mL]	MIC [5, 8] [µg/mL]
C[C@H]1COc2c(N3CC(N)C(CO)C3)c(F)cc3cc(C(=O)O)c(=O)n1c23 (single isomer, unassigned) [Example 1.77]	1 to 32 (≈ 2.65 to 84.8 µM)	> 32	> 32	> 32	1 to 32 (≈ 2.65 to 84.8 µM)	> 32	> 32	
C[C@H]1COc2c(N3CC(CO)C(N(C)C)C3)c(F)cc3cc(C(=O)O)c(=O)n1c23 (single isomer, unassigned) [Example 1.78]	1 to 32 (≈ 2.47 to 78.9 µM)	> 32	> 32	> 32	1 to 32 (≈ 2.47 to 78.9 µM)	1 to 32 (≈ 2.47 to 78.9 µM)	> 32	
CC1CCc2c(N3CC[C@@H](C4(N)CC4)C3)c(F)cc3cc(C(=O)O)c(=O)n1c23.O=C(O)C(F)(F)F (single isomer, unassigned) [Example 8]	< 1	< 1	< 1	< 1		1 to 32	1 to 32	< 1
CC1Cc2c(N3CC[C@@H](C4(N)CC4)C3)c(F)cc3cc(C(=O)O)c(=O)n1c23.Cl (single isomer, unassigned) [Example 9.1]	< 1	1 to 32	< 1	< 1		1 to 32	> 32	< 1
C[C@H]1COc2c(N3CCC4(CC4N)C3)c(F)c(F)c3cc(C(=O)O)c(=O)n1c23 (single isomer, unassigned) [Example 13.4]	< 1	1 to 32 (≈ 2.56 to 81.8 µM)	1 to 32 (≈ 2.56 to 81.8 µM)	< 1	< 1	< 1	1 to 32 (≈ 2.56 to 81.8 µM)	
C[C@H]1COc2c(N3CC4CC4(N)C3)c(F)c(F)c3cc(C(=O)O)c(=O)n1c23 (single isomer, unassigned) [Example 13.6]	< 1	1 to 32 (≈ 2.65 to 84.8 µM)	< 1	< 1	< 1	1 to 32 (≈ 2.65 to 84.8 µM)	> 32	
C[C@H]1COc2c(N3CC4C(N)C4C3)c(F)c(F)c3cc(C(=O)O)c(=O)n1c23 (single isomer, unassigned) [Example 13.7]	< 1	1 to 32 (≈ 2.65 to 84.8 µM)	1 to 32 (≈ 2.65 to 84.8 µM)	< 1	< 1	< 1	1 to 32 (≈ 2.65 to 84.8 µM)	
C[C@H]1COc2c(N3CC[C@@H](C4(N)CC4)C3)c(F)cc3cc(C(=O)O)c(=O)n1c23.Cl [Example 1.1, (S)-10-((R)-3-(1-aminocyclopropyl)pyrrolidin-1-yl)-9-fluoro-3-methyl-5-oxo-2,3-dihydro-5H-[1,4]oxazino[2,3,4-ij]quinoline-6-carboxylic acid hydrochloride salt]	< 1	1 to 32	< 1	< 1		1 to 32	> 32	< 1
C[C@H]1COc2c(N3CC[C@H](N)C3)c(F)cc3cc(C(=O)O)c(=O)n1c23 [Example 1.2, (S)-10-((S)-3-aminopyrrolidin-1-yl)-9-fluoro-3-methyl-5-oxo-2,3-dihydro-5H-[1,4]oxazino[2,3,4-ij]quinoline-6-carboxylic acid]	1 to 32 (≈ 2.88 to 92.1 µM)	> 32	> 32	1 to 32 (≈ 2.88 to 92.1 µM)	1 to 32 (≈ 2.88 to 92.1 µM)	1 to 32 (≈ 2.88 to 92.1 µM)	1 to 32 (≈ 2.88 to 92.1 µM)	
C[C@H]1COc2c(N3CC4CC4(N)C3)c(F)cc3cc(C(=O)O)c(=O)n1c23 (stereo partly drawn) [Example 1.3, (3S)-10-(1-amino-3-azabicyclo[3.1.0]hexan-3-yl)-9-fluoro-3-methyl-5-oxo-2,3-dihydro-5H-[1,4]oxazino[2,3,4-ij]quinoline-6-carboxylic acid]	< 1	1 to 32 (≈ 2.78 to 89 µM)	1 to 32 (≈ 2.78 to 89 µM)	1 to 32 (≈ 2.78 to 89 µM)	1 to 32 (≈ 2.78 to 89 µM)	1 to 32 (≈ 2.78 to 89 µM)	> 32	
C[C@H]1COc2c(N3CCN(C)CC3)c(F)cc3cc(C(=O)O)c(=O)n1c23 [Example 1.4, (S)-9-fluoro-3-methyl-10-(4-methylpiperazin-1-yl)-5-oxo-2,3-dihydro-5H-[1,4]oxazino[2,3,4-ij]quinoline-6-carboxylic acid]	1 to 32 (≈ 2.77 to 88.6 µM)	> 32	> 32	> 32	> 32	1 to 32 (≈ 2.77 to 88.6 µM)	> 32	
C[C@H](N)[C@@H]1CCN(c2c(F)cc3cc(C(=O)O)c(=O)n4c3c2OC[C@@H]4C)C1 [Example 1.5, (S)-10-((R)-3-((S)-1-aminoethyl)pyrrolidin-1-yl)-9-fluoro-3-methyl-5-oxo-2,3-dihydro-5H-[1,4]oxazino[2,3,4-ij]quinoline-6-carboxylic acid]	< 1	1 to 32 (≈ 2.66 to 85.2 µM)	< 1	< 1	< 1	1 to 32 (≈ 2.66 to 85.2 µM)	1 to 32 (≈ 2.66 to 85.2 µM)	
C[C@H]1COc2c(N3CC[C@H](O)C3)c(F)cc3cc(C(=O)O)c(=O)n1c23 [Example 1.6, (S)-9-fluoro-10-((S)-3-hydroxypyrrolidin-1-yl)-3-methyl-5-oxo-2,3-dihydro-5H-[1,4]oxazino[2,3,4-ij]quinoline-6-carboxylic acid]	< 1	> 32	1 to 32 (≈ 2.87 to 91.9 µM)	1 to 32 (≈ 2.87 to 91.9 µM)	1 to 32 (≈ 2.87 to 91.9 µM)	1 to 32 (≈ 2.87 to 91.9 µM)	> 32	
C[C@H]1COc2c(N3CCC(=C(Cl)CO)CC3)c(F)cc3cc(C(=O)O)c(=O)n1c23 [Example 1.8, (S)-10-(4-(1-chloro-2-hydroxyethylidene)piperidin-1-yl)-9-fluoro-3-methyl-5-oxo-2,3-dihydro-5H-[1,4]oxazino[2,3,4-ij]quinoline-6-carboxylic acid]	< 1	1 to 32 (≈ 2.36 to 75.7 µM)	< 1	< 1	< 1	> 32	> 32	
C[C@H]1COc2c(N3CCC(C4(N)COC4)C3)c(F)cc3cc(C(=O)O)c(=O)n1c23 (stereo partly drawn) [Example 1.9, (3S)-10-(3-(3-aminooxetan-3-yl)pyrrolidin-1-yl)-9-fluoro-3-methyl-5-oxo-2,3-dihydro-5H-[1,4]oxazino[2,3,4-ij]quinoline-6-carboxylic acid]	1 to 32 (≈ 2.48 to 79.3 µM)	> 32	> 32	> 32	1 to 32 (≈ 2.48 to 79.3 µM)	> 32	> 32	
